According to ChEMBL document CHEMBL1201862, “PubChem BioAssay data set” (2004):
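Method: 48-hour compound exposure of cells in 96-well plates, five concentrations, linear interpolation of endpoints. Abbreviation: GI50, concentration required for 50% inhibition of growth.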 Active and inactive are the calls of the source. Cut-off read from the data, not from the text of the source: active = GI50 up to about 1.1 µM and inactive = higher.

Columns and labels:
Experiment in all cases: DTP human tumour cell line panel, 48 h
UO-31 = system: UO-31
Hs-578T = system: Hs-578T
SF-295 = system: SF-295
UACC-257 = system: UACC-257
A498 = system: A498
K562 = system: K562
NCI-H23 = system: NCI-H23
HOP-62 = system: HOP-62
CAKI-1 = system: CAKI-1
OVCAR-4 = system: OVCAR-4
PC-3 = system: PC-3
HCT-15 = system: HCT-15
HL-60 = system: HL-60
HOP-92 = system: HOP-92
UACC-62 = system: UACC-62
786-0 = system: 786-0
SF-268 = system: SF-268
BT-549 = system: BT-549
EKVX = system: EKVX

SMILES | GI50 (UO-31) | GI50 (Hs-578T) | GI50 (SF-295) | GI50 (UACC-257) | GI50 (A498) | GI50 (K562) | GI50 (NCI-H23) | GI50 (HOP-62) | GI50 (CAKI-1) | GI50 (OVCAR-4) | GI50 (PC-3) | GI50 (HCT-15) [µM] | GI50 (HL-60) | GI50 (HOP-92) | GI50 (UACC-62) | GI50 (786-0) | GI50 (SF-268) | GI50 (BT-549) | GI50 (EKVX)
COP(=O)(O)C(N)Cc1c[nH]c2ccccc12 (configuration not stated) | > 100 µM (inactive) | > 100 µM (inactive) | > 100 µM (inactive) | > 100 µM (inactive) | > 100 µM (inactive) | > 100 µM (inactive) | > 100 µM (inactive) | > 100 µM (inactive) | > 100 µM (inactive) | > 100 µM (inactive) | > 100 µM (inactive) | > 100 | > 10 µM (inactive) | > 100 µM (inactive) |  |  |  |  | 
O=C(c1ccccc1)c1c(CC(O)c2cccnc2)n(C(=O)c2ccccc2)c2ccccc12 (configuration not stated) | 14.1 µM (inactive) |  | 17.4 µM (inactive) | 22.4 µM (inactive) |  | 21.6 µM (inactive) | 16.5 µM (inactive) | 16 µM (inactive) | 26.4 µM (inactive) | 15.2 µM (inactive) |  | 21.3 | 21.5 µM (inactive) | 15 µM (inactive) | 16.5 µM (inactive) | 33.2 µM (inactive) | 20 µM (inactive) |  | 
ClC1=C(Cc2ccccc2)Cc2ccc3c(c21)CCC3 | 21.8 µM (inactive) | 23.2 µM (inactive) | 29.4 µM (inactive) | 23.1 µM (inactive) |  | 31.1 µM (inactive) | 19.7 µM (inactive) | 34.1 µM (inactive) | 41.4 µM (inactive) | 9.23 µM (inactive) | 32.3 µM (inactive) | 31.3 | 19.7 µM (inactive) | 99.8 µM (inactive) | 27.6 µM (inactive) | 30.4 µM (inactive) | 33.2 µM (inactive) | 31.1 µM (inactive) | 39.3 µM (inactive)
O=[N+]([O-])C(/C=C(\Cl)[N+](=O)[O-])=C(N1CCOCC1)N1CCOCC1 | 36.6 µM (inactive) | 0.232 µM (active) | > 100 µM (inactive) | > 100 µM (inactive) | 27 µM (inactive) | 18.3 µM (inactive) | > 100 µM (inactive) | 20.9 µM (inactive) | 27.4 µM (inactive) | 25.9 µM (inactive) | > 100 µM (inactive) | > 100 | 18.4 µM (inactive) | 25.4 µM (inactive) | 85.7 µM (inactive) | 16.7 µM (inactive) | 35.5 µM (inactive) |  | > 100 µM (inactive)
CSc1n[n+](C)cc(N)c1N | 88.9 µM (inactive) |  | > 100 µM (inactive) | 52 µM (inactive) | > 100 µM (inactive) | 39 µM (inactive) | > 100 µM (inactive) | > 100 µM (inactive) | > 100 µM (inactive) | > 100 µM (inactive) | > 100 µM (inactive) | > 100 | 51.9 µM (inactive) | 17.8 µM (inactive) | > 100 µM (inactive) | > 100 µM (inactive) |  | 87.1 µM (inactive) | > 100 µM (inactive)
c1ccc(Nc2nnc(-c3ccccc3Nc3ccccc3-c3nnc(Nc4ccccc4)s3)s2)cc1 | > 100 µM (inactive) |  | > 100 µM (inactive) | > 100 µM (inactive) |  | > 100 µM (inactive) | > 100 µM (inactive) | > 100 µM (inactive) |  | > 100 µM (inactive) | > 100 µM (inactive) | > 100 | > 100 µM (inactive) | 0.703 µM (active) | > 100 µM (inactive) | > 100 µM (inactive) | > 100 µM (inactive) | > 100 µM (inactive) | > 100 µM (inactive)
CC1(C)[C@@H](Cn2nnc3c(N)ncnc32)CC[C@@]1(C)CO | > 100 µM (inactive) | > 100 µM (inactive) | > 100 µM (inactive) | > 100 µM (inactive) | > 100 µM (inactive) | > 100 µM (inactive) |  | > 100 µM (inactive) | > 100 µM (inactive) | > 100 µM (inactive) | > 100 µM (inactive) | > 100 |  | > 100 µM (inactive) | > 100 µM (inactive) | > 100 µM (inactive) | > 100 µM (inactive) |  | > 100 µM (inactive)
C=C1C(=O)O[C@H]2C(=O)[C@H](C)CCC[C@@](C)(O)/C=C\C[C@@]3(C)O[C@@H]3C[C@@H]12 | 13.5 µM (inactive) | 27 µM (inactive) | 5.28 µM (inactive) | 14.1 µM (inactive) | 16.1 µM (inactive) |  | 24.5 µM (inactive) |  | 12.9 µM (inactive) |  | 17 µM (inactive) | 11.5 |  | 10.3 µM (inactive) | 18.4 µM (inactive) | 12.3 µM (inactive) | 23.3 µM (inactive) |  | 
N#Cc1c(N)nc(Sc2ccccc2N)c(C#N)c1-c1ccccc1 | 11.4 µM (inactive) |  |  | 24.9 µM (inactive) |  | 9.53 µM (inactive) | 13.3 µM (inactive) | 22.1 µM (inactive) | 28.6 µM (inactive) | 15.9 µM (inactive) | 9.64 µM (inactive) | 15.2 | 0.141 µM (active) | 24.5 µM (inactive) | 10.3 µM (inactive) | 13.5 µM (inactive) | 17.8 µM (inactive) | 10.8 µM (inactive) | 16.2 µM (inactive)
